Usually MBC stands for the smallest concentration meeting the test's criterion for killing. Low readings indicate greater bactericidal potency, high ones weaker bactericidal potency. In general, MIC refers to the lowest concentration found to suppress growth.

Data set [1] relates to K. pneumoniae BAMC 07-18. The class given is cell-based, Klebsiella pneumoniae. The source says:
Table 3 In vitro minimum inhibitory concentration (MIC) and minimum bactericide concentration (MBC) activity against K. pneumonia and P. aeruginosa. | column: K. pneumoniae BAMC 07-18 / MBC (μg/mL)/(μM)

Data set [2] concerns K. pneumoniae BAMC 07-18. The following applies: for in vitro inhibitory activity: against K. pneumoniae.
The test system of data set [3] is P. aeruginosa PAO1. Particulars: for in vitro inhibitory activity: against P. aeruginosa.
Data set [4] relates to P. aeruginosa PAO1. The class given is cell-based, Pseudomonas aeruginosa. The source says:
Table 3 In vitro minimum inhibitory concentration (MIC) and minimum bactericide concentration (MBC) activity against K. pneumonia and P. aeruginosa. | column: P. aeruginosa PAO1 / MBC (µg/mL)/(μM)

The format of data set [5] is physicochemical. Here is the method: Peptide solutions were prepared by dissolving approximately 2 mg of AMPs 70, 74, 75, 79, or 80 in 1.0 mL of phosphate buffer. […] For the LPS liposome studies 350 μL of stock LPS solution was mixed with 50 μL of stock peptide solution. CD spectroscopy is a sensitive technique, so it is commonly used to monitor conformational changes in peptides and proteins. […] All CD spectra were obtained by acquiring 8 scans using a 0.1 mm cylindrical quartz cell with a spectral range of 260 to 195 nm (at wavelengths below 195 nm the HTV exceeded 400, and therefore data collection was terminated at 195 nm) and a scanning rate of 20 nm/min. Acquisition parameters were bandwidth 1 nm, data pitch 0.2 nm, response time 2.0 s, and 5 mdeg sensitivity. Spectra were collected at room temperature (298 K). Contributions from LPS were eliminated by subtracting from the corresponding AMP-LPS solutions. All analyses of CD spectra were conducted after smoothing with a means-movement function.

For data set [6], the system named is LPS isolated from K. pneumoniae. Put plainly: 1H NMR of LPS on addition of AMP. It is filed as binding, Klebsiella pneumoniae. Particulars: 1.0 mg/mL LPS + 0.1 mg AMP in 600 μL 150 mM perdeuterated sodium acetate buffer pH 5.64 in D2O, 298 K. Here is the method:
(§1) All ^1H experiments were conducted at 298 K on a Bruker Avance III 400 MHz NMR spectrometer equipped with a 5 mm direct observe Z-gradient broad-band probe. The spectral width was 4,000 Hz, 256 FIDs were collected per experiment. Data were processed using exponential multiplication with a line-broadening function of 5 Hz. Samples contained 1.0 mg/mL of the LPS in the presence of 0.1 mg of the AMP in 600 μL of a 150 mM perdeuterated sodium acetate buffer at a pH of 5.64 in D2O.

The subject of data set [7] is LPS isolated from P. aeruginosa. Kind of data set: 1H NMR of LPS on addition of AMP. The class given is binding, Pseudomonas aeruginosa. Particulars: 1.0 mg/mL LPS + 0.1 mg AMP in 600 μL 150 mM perdeuterated sodium acetate buffer pH 5.64 in D2O, 298 K. How it is done: as §1
[8] abbreviates: P. aeruginosa PAO1, light face value.
The mark [9] stands for this setting: K. pneumoniae BAMC 07-18, light face value.

Read-outs that look alike come from different tables or passages of the source. Where a SMILES comes first, the peptide text is derived from it. [ ]: non-standard residue; d: D form. ξ: configuration not given here. Oic = O=C(O)[C@@H]1C[C@@H]2CCCC[C@@H]2N1; Oic(3aξ,7aξ) = O=C(O)[C@@H]1CC2CCCCC2N1; Tic = O=C(O)[C@@H]1Cc2ccccc2CN1; βAla = NCCC(=O)O Some results are limits rather than exact numbers.

For the compound `CC(C)C[C@H](NC(=O)[C@@H](N)CCCCN)C(=O)N1Cc2ccccc2C[C@H]1C(=O)N1[C@H](C(=O)N[C@@H](CCCCN)C(=O)N2Cc3ccccc3C[C@H]2C(=O)N2[C@H](C(=O)N[C@@H](Cc3ccccc3)C(=O)N3Cc4ccccc4C[C@H]3C(=O)N3[C@H](C(=O)N[C@@H](CCCCN)C(=O)N4Cc5ccccc5C[C@H]4C(=O)N4[C@H](C(=O)N[C@@H](Cc5ccccc5)C(=O)N5Cc6ccccc6C[C@H]5C(=O)N5[C@H](C(=O)N[C@@H](CCCCN)C(=O)N6Cc7ccccc7C[C@H]6C(=O)N6[C@H](C(=O)N[C@@H](CCCCN)C(=O)N[C@@H](CCCNC(=N)N)C(N)=O)C[C@@H]7CCCC[C@@H]76)C[C@@H]6CCCC[C@@H]65)C[C@@H]5CCCC[C@@H]54)C[C@@H]4CCCC[C@@H]43)C[C@@H]3CCCC[C@@H]32)C[C@@H]2CCCC[C@@H]21` [AMP 22] (H-KL[Tic][Oic]K[Tic][Oic]F[Tic][Oic]K[Tic][Oic]F[Tic][Oic]K[Tic][Oic]KR-NH2), the MBC in data set [1] (BAMC 07-18) and in data set [4] (PAO1) was more than 100 µg/mL in each case. Besides, the MIC in data set [2] (BAMC 07-18) and in data set [3] (PAO1) was more than 100 µg/mL in each case. The “in vitro inhibitory activity” value in data set [2] and in data set [3] was not below 100 µg/mL throughout. In addition, in data set [5], the “solubility in phosphate buffer at approximately 2 mg in 1.0 mL” value is reported as “solubility issues”.

Consider `CC(=O)N[C@@H](CCCCN)C(=O)N[C@@H](CC(C)C)C(=O)N1Cc2ccccc2C[C@H]1C(=O)N1[C@H](C(=O)N[C@@H](CCCCN)C(=O)N2Cc3ccccc3C[C@H]2C(=O)N2[C@H](C(=O)N[C@@H](Cc3ccccc3)C(=O)N3Cc4ccccc4C[C@H]3C(=O)N3[C@H](C(=O)N[C@@H](CCCCN)C(=O)N4Cc5ccccc5C[C@H]4C(=O)N4[C@H](C(=O)N[C@@H](Cc5ccccc5)C(=O)N5Cc6ccccc6C[C@H]5C(=O)N5[C@H](C(=O)N[C@@H](CCCCN)C(=O)N6Cc7ccccc7C[C@H]6C(=O)N6[C@H](C(=O)N[C@@H](CCCCN)C(=O)N[C@@H](CCCCN)C(=O)N[C@@H](CCCCN)C(=O)N[C@@H](CCCCN)C(N)=O)C[C@@H]7CCCC[C@@H]76)C[C@@H]6CCCC[C@@H]65)C[C@@H]5CCCC[C@@H]54)C[C@@H]4CCCC[C@@H]43)C[C@@H]3CCCC[C@@H]32)C[C@@H]2CCCC[C@@H]21` [AMP 70] (Ac-KL[Tic][Oic]K[Tic][Oic]F[Tic][Oic]K[Tic][Oic]F[Tic][Oic]K[Tic][Oic]KKKK-NH2), for which the “change of LPS 1H NMR resonances in the region of 1.8 to 0.7 ppm (lipid A)” value (“change of LPS 1H NMR resonances … (lipid A)” for short) in data set [6] is on record as “reduction in the signal intensity”. Besides, the MBC in data set [1] (BAMC 07-18) and in data set [4] (PAO1) was more than 100 µg/mL in each case. The MIC in data set [2] (BAMC 07-18) and in data set [3] (PAO1) was more than 100 µg/mL throughout. Further, the “in vitro inhibitory activity” value in data set [2] and in data set [3] was not below 100 µg/mL in each case. In addition, the “change of LPS 1H NMR resonances between 1.5 and 0.5 ppm (lipid A side chains)” value (from here on “change … (lipid A side chains)”) in data set [7] is listed as “significant reduction in the peak heights”.

For `CC(C)C[C@H](NC(=O)[C@@H](N)CCCCN)C(=O)N1Cc2ccccc2C[C@H]1C(=O)N1[C@H](C(=O)N[C@@H](CCCCN)C(=O)N2Cc3ccccc3C[C@H]2C(=O)N2[C@H](C(=O)NCC(=O)N[C@@H](Cc3ccccc3)C(=O)N3Cc4ccccc4C[C@H]3C(=O)N3[C@H](C(=O)N[C@@H](CCCCN)C(=O)N4Cc5ccccc5C[C@H]4C(=O)N4[C@H](C(=O)NCC(=O)N[C@@H](Cc5ccccc5)C(=O)N5Cc6ccccc6C[C@H]5C(=O)N5[C@H](C(=O)N[C@@H](CCCCN)C(=O)N6Cc7ccccc7C[C@H]6C(=O)N6[C@H](C(=O)N[C@@H](CCCCN)C(=O)N[C@@H](CCCCN)C(=O)N[C@@H](CCCCN)C(=O)N[C@@H](CCCCN)C(N)=O)C[C@@H]7CCCC[C@@H]76)C[C@@H]6CCCC[C@@H]65)C[C@@H]5CCCC[C@@H]54)C[C@@H]4CCCC[C@@H]43)C[C@@H]3CCCC[C@@H]32)C[C@@H]2CCCC[C@@H]21` [AMP 75] (H-KL[Tic][Oic]K[Tic][Oic]GF[Tic][Oic]K[Tic][Oic]GF[Tic][Oic]K[Tic][Oic]KKKK-NH2), the “change of LPS 1H NMR resonances … (lipid A)” value in data set [6] is “reduction in the signal intensity”. The “in vitro inhibitory activity” value in data set [2] is not below 100 µg/mL; in data set [3], 50 µg/mL. Moreover, the “change … (lipid A side chains)” value in data set [7] is reported as “significant reduction in the peak heights”. Besides, the MIC in data set [3] (setting [8]) was found to be 50 µg/mL; in data set [3] (PAO1) it was 14.6 µM. The MBC in data set [4] (setting [8]) came to 50 µg/mL; in data set [4] (PAO1), 14.6 µM.

In the case of `CC(C)C[C@H](NC(=O)[C@@H](N)CCCCN)C(=O)N1Cc2ccccc2C[C@H]1C(=O)N1C2CCCCC2C[C@H]1C(=O)N[C@@H](CCCCN)C(=O)NCC(=O)N1Cc2ccccc2C[C@H]1C(=O)N1C2CCCCC2C[C@H]1C(=O)N[C@@H](Cc1ccccc1)C(=O)NCC(=O)N1Cc2ccccc2C[C@H]1C(=O)N1C2CCCCC2C[C@H]1C(=O)N[C@@H](CCCCN)C(=O)NCC(=O)N1Cc2ccccc2C[C@H]1C(=O)N1C2CCCCC2C[C@H]1C(=O)N[C@@H](Cc1ccccc1)C(=O)NCC(=O)N1Cc2ccccc2C[C@H]1C(=O)N1C2CCCCC2C[C@H]1C(=O)N[C@@H](CCCCN)C(=O)NCC(=O)N1Cc2ccccc2C[C@H]1C(=O)N1C2CCCCC2C[C@H]1C(=O)N[C@@H](CCCCN)C(=O)N[C@@H](CCCCN)C(=O)N[C@@H](CCCCN)C(=O)N[C@@H](CCCCN)C(N)=O` (stereo partly drawn) [AMP 79] (H-KL[Tic][Oic(3aξ,7aξ)]KG[Tic][Oic(3aξ,7aξ)]FG[Tic][Oic(3aξ,7aξ)]KG[Tic][Oic(3aξ,7aξ)]FG[Tic][Oic(3aξ,7aξ)]KG[Tic][Oic(3aξ,7aξ)]KKKK-NH2), in data set [6], the “change of LPS 1H NMR resonances … (lipid A)” value is “reduction in the signal intensity”. Moreover, the MBC in data set [1] (BAMC 07-18) is 13.9 µM; in data set [1] (setting [9]), 50 µg/mL; in data set [4] (setting [8]) it was 50 µg/mL; in data set [4] (PAO1), 13.9 µM. Further, the MIC was 13.9 µM in data set [2] (BAMC 07-18), 50 µg/mL in data set [2] (setting [9]), 50 µg/mL in data set [3] (setting [8]) and 13.9 µM in data set [3] (PAO1). For the same compound, the “in vitro inhibitory activity” value in data set [2] and in data set [3] was 50 µg/mL each time. Further, in data set [7], the “change … (lipid A side chains)” value is given as “significant reduction in the peak heights”.

For the compound `CC(C)C[C@H](NC(=O)[C@@H](N)CCCCN)C(=O)N1Cc2ccccc2C[C@H]1C(=O)N1C2CCCCC2C[C@H]1C(=O)NCC(=O)N[C@@H](CCCCN)C(=O)N1Cc2ccccc2C[C@H]1C(=O)N1C2CCCCC2C[C@H]1C(=O)NCCC(=O)N[C@@H](Cc1ccccc1)C(=O)N1Cc2ccccc2C[C@H]1C(=O)N1C2CCCCC2C[C@H]1C(=O)NCC(=O)N[C@@H](CCCCN)C(=O)N1Cc2ccccc2C[C@H]1C(=O)N1C2CCCCC2C[C@H]1C(=O)NCCC(=O)N[C@@H](Cc1ccccc1)C(=O)N1Cc2ccccc2C[C@H]1C(=O)N1C2CCCCC2C[C@H]1C(=O)NCC(=O)N[C@@H](CCCCN)C(=O)N1Cc2ccccc2C[C@H]1C(=O)N1C2CCCCC2C[C@H]1C(=O)N[C@@H](CCCCN)C(=O)N[C@@H](CCCCN)C(=O)N[C@@H](CCCCN)C(=O)N[C@@H](CCCCN)C(N)=O` (stereo partly drawn) [AMP 80] (H-KL[Tic][Oic(3aξ,7aξ)]GK[Tic][Oic(3aξ,7aξ)][βAla]F[Tic][Oic(3aξ,7aξ)]GK[Tic][Oic(3aξ,7aξ)][βAla]F[Tic][Oic(3aξ,7aξ)]GK[Tic][Oic(3aξ,7aξ)]KKKK-NH2), the “change of LPS 1H NMR resonances … (lipid A)” value in data set [6] is on record as “reduction in the signal intensity”. In addition, the MBC in data set [1] (BAMC 07-18) came out at 13.8 µM; in data set [1] (setting [9]), 50 µg/mL; in data set [4] (setting [8]), 50 µg/mL; in data set [4] (PAO1), 13.8 µM. The MIC in data set [2] (BAMC 07-18) worked out at 13.8 µM; in data set [2] (setting [9]), 50 µg/mL; in data set [3] (setting [8]), 25 µg/mL; in data set [3] (PAO1), 6.9 µM. Moreover, the “in vitro inhibitory activity” value in data set [2] and in data set [3] was 50 µg/mL in each case. Also, in data set [7], the “change … (lipid A side chains)” value was “significant reduction in the peak heights”.

As for “H2N-KL-Tic-Oic-GK-Tic-Oic-F-Tic-Oic-GK-Tic-Oic-F-Tic-Oic-GK-Tic-Oic-KKKK-CONH2 [AMP 74]”, the “change of LPS 1H NMR resonances … (lipid A)” value in data set [6] is “reduction in the signal intensity”. Further, the “in vitro inhibitory activity” value in data set [2] and in data set [3] was not below 100 µg/mL each time. Besides, in data set [7], the “change … (lipid A side chains)” value is “significant reduction in the peak heights”.

Source of the values: article PMC4295349, “Synthetic Antimicrobial Peptides Exhibit Two Different Binding Mechanisms to the Lipopolysaccharides Isolated from Pseudomonas aeruginosa and Klebsiella pneumoniae” (International Journal of Medicinal Chemistry, 2014).
